In patent US10899709B2, “Novel-alkynyl-substituted 3-phenylpyrrolidine-2,4-diones and use thereof as herbicides” (BAYER CROPSCIENCE AKTIENGESELLSCHAFT, priority 2015, dated 2021):

Assays:
Format in all cases: in vivo
Alopecurus myosuroides [1] = experiment: Pre-emergence herbicidal effect; conditions: visual score after 3 weeks
Description: (§1) Seeds of monocotyledonous and dicotyledonous weed plants and crop plants are laid out in wood-fibre pots in sandy loam and covered with soil. The compounds according to the invention formulated in the form of wettable powders (WP) or as emulsion concentrates (EC) are then applied as aqueous suspension or emulsion at a water application rate of 600 to 800 l/ha (converted) with the addition of 0.2% wetting agent to the surface of the covering soil. After the treatment, the pots are placed in a greenhouse and kept under good growth conditions for the trial plants. The damage to the test plants is scored visually after a test period of 3 weeks by comparison with untreated controls (herbicidal activity in percent (%): 100% activity=the plants have died, 0% activity=like control plants).

Echinochloa crus-galli [2] = experiment: Pre-emergence herbicidal effect; conditions: visual score after 3 weeks
Description: as §1

Lolium multiflorum [3] = experiment: Pre-emergence herbicidal effect; conditions: visual score after 3 weeks
Description: as §1

Setaria viridis [4] = experiment: Pre-emergence herbicidal effect; conditions: visual score after 3 weeks
Description: as §1

Veronica persica [5] = experiment: Pre-emergence herbicidal effect; conditions: 320 g/ha, visual score after 3 weeks
Description: as §1

Viola tricolor = experiment: Pre-emergence herbicidal effect; conditions: 320 g/ha, visual score after 3 weeks
Description: as §1

Avena fatua [6] = experiment: Pre-emergence herbicidal effect; conditions: visual score after 3 weeks
Description: as §1

Cyperus esculentus = experiment: Pre-emergence herbicidal effect; conditions: visual score after 3 weeks
Description: as §1

Alopecurus myosuroides [7] = experiment: Post-emergence herbicidal effect; conditions: for Post-emergence effectiveness ALOMY: visual assessment after about 3 weeks
Protocol: (§2) Seeds of monocotyledonous and dicotyledonous weed and crop plants are laid out in sandy loam in wood-fibre pots, covered with soil and cultivated in a greenhouse under good growth conditions. 2 to 3 weeks after sowing, the test plants are treated at the one-leaf stage. The compounds according to the invention, formulated in the form of wettable powders (WP) or as emulsion concentrates (EC), are then sprayed as aqueous suspension or emulsion at a water application rate of 600 to 800 l/ha (converted) with the addition of 0.2% of wetting agent onto the green parts of the plants. After the test plants have been left to stand in the greenhouse under optimal growth conditions for about 3 weeks, the action of the preparations is assessed visually in comparison to untreated controls (herbicidal action in percent (%): 100% activity=the plants have died, 0% activity=like control plants).

Avena fatua [8] = experiment: Post-emergence herbicidal effect; conditions: for Post-emergence effectiveness AVEFA: visual assessment after about 3 weeks
Protocol: as §2

Echinochloa crus-galli [9] = experiment: Post-emergence herbicidal effect; conditions: visual assessment after about 3 weeks
Protocol: as §2

Lolium multiflorum [10] = experiment: Post-emergence herbicidal effect; conditions: visual assessment after about 3 weeks
Protocol: as §2

PHBPU = experiment: Post-emergence herbicidal effect; conditions: 20 g a.i./ha
Protocol: as §2

Setaria viridis [11] = experiment: Post-emergence herbicidal effect; conditions: visual assessment after about 3 weeks
Protocol: as §2

Veronica persica [12] = experiment: Post-emergence herbicidal effect; conditions: 80 g/ha, visual assessment after about 3 weeks
Protocol: as §2

Amaranthus retroflexus = experiment: Pre-emergence herbicidal effect; conditions: 320 g/ha, visual score after 3 weeks
Description: as §1

Polygonum convolvulus = experiment: Post-emergence herbicidal effect; conditions: 80 g/ha, visual assessment after about 3 weeks
Protocol: as §2

| Compound | Pre-emergence effectiveness ALOMY (Alopecurus myosuroides [1]; 320 g/ha) | Pre-emergence effectiveness ECHCG (Echinochloa crus-galli [2]; 80 g/ha) | Pre-emergence effectiveness ECHCG (Echinochloa crus-galli [2]; 320 g/ha) | Pre-emergence effectiveness LOLMU (Lolium multiflorum [3]; 320 g/ha) | Pre-emergence effectiveness SETVI (Setaria viridis [4]; 80 g/ha) | Pre-emergence effectiveness SETVI (Setaria viridis [4]; 320 g/ha) | Pre-emergence effectiveness VERPE (Veronica persica [5]) | Pre-emergence effectiveness ALOMY (Alopecurus myosuroides [1]; 80 g/ha) | Pre-emergence effectiveness AVEFA (Avena fatua [6]; 80 g/ha) | Pre-emergence effectiveness AVEFA (Avena fatua [6]; 320 g/ha) | Pre-emergence effectiveness CYPES (Cyperus esculentus; 320 g/ha) | Pre-emergence effectiveness LOLMU (Lolium multiflorum [3]; 80 g/ha) | Post-emergence effectiveness ALOMY (Alopecurus myosuroides [7]; 20 g/ha) | Post-emergence effectiveness ALOMY (Alopecurus myosuroides [7]; 80 g/ha) | Post-emergence effectiveness AVEFA (Avena fatua [8]; 80 g/ha) | Post-emergence effectiveness ECHCG (Echinochloa crus-galli [9]; 20 g/ha) | Post-emergence effectiveness ECHCG (Echinochloa crus-galli [9]; 80 g/ha) | Post-emergence effectiveness LOLMU (Lolium multiflorum [10]; 80 g/ha) | Post-emergence effectiveness SETVI (Setaria viridis [11]; 20 g/ha) | Post-emergence effectiveness SETVI (Setaria viridis [11]; 80 g/ha) | other results |
| --- | --- | --- | --- | --- | --- | --- | --- | --- | --- | --- | --- | --- | --- | --- | --- | --- | --- | --- | --- | --- | --- |
| CC#Cc1cc(C)c(C2=C(OC(=O)C(C)C)C3(CCC(CCOC)CC3)NC2=O)c(CC)c1 (stereo not drawn) [Ia-4] | 80% | 100% | 100% | 90% | 100% | 100% | 90% |  |  |  |  |  |  |  |  |  |  |  |  |  | Pre-emergence effectiveness VIOTR (Viola tricolor): 100% |
| CC#Cc1cc(C)c(C2=C(O)C3(CCC(COC)CC3)NC2=O)c(CC)c1 (stereo not drawn) [Example I-5] | 100% | 100% | 100% | 100% | 100% | 100% | 80% | 100% | 100% | 100% | 100% | 100% | 90% | 100% | 100% | 100% | 100% | 100% | 90% | 100% | Comparison data for post-emergence effect ALOMY (Alopecurus myosuroides [7]; 20 g a.i./ha): 90%; Comparison data for post-emergence effect AVEFA (Avena fatua [8]; 20 g a.i./ha): 90%; Post-emergence effectiveness AVEFA (Avena fatua [8]; 20 g/ha): 90%; Post-emergence effectiveness LOLMU (Lolium multiflorum [10]; 20 g/ha): 90%; Comparison data for post-emergence effect PHBPU (PHBPU): 30% |
| CC#Cc1cc(C)c(C2=C(OC(=O)C(C)C)C3(CCC(COC)CC3)NC2=O)c(CC)c1 (stereo not drawn) [Ia-3] | 100% | 100% | 100% | 100% | 100% | 100% | 90% | 90% | 80% | 90% |  | 100% | 90% | 100% |  | 90% | 100% | 100% | 90% | 100% | Post-emergence action VERPE (Veronica persica [12]): 90% |
| CC#Cc1cc(CC)c(C2=C(OC(=O)C(C)C)C3(CCC(CCOC)CC3)NC2=O)c(CC)c1 (stereo not drawn) [Example Ia-5] | 100% | 100% | 100% | 100% | 100% | 100% | 100% | 100% | 80% | 100% | 100% | 100% |  |  |  |  |  |  |  |  | Pre-emergence effectiveness AMARE (Amaranthus retroflexus): 100%; Pre-emergence effectiveness CYPES (Cyperus esculentus; 80 g/ha): 100% |
| CCc1cc(C#CC2CC2)cc(C)c1C1=C(O)C2(CCC(COC)CC2)NC1=O (stereo not drawn) [Example I-7] | 100% | 100% | 100% | 100% | 90% | 100% |  | 80% |  |  |  | 100% | 90% | 100% | 100% | 100% | 100% | 100% | 100% | 100% | Post-emergence effectiveness LOLMU (Lolium multiflorum [10]; 20 g/ha): 90%; Post-emergence effectiveness POLCO (Polygonum convolvulus): 80% |
